The target of one assay is T1, human ATGL (Homo sapiens, UniProt Q96AD5).
T1 construct: made in house; host or cells: Expi cells (lysate, not purified)
T1 sequence (Q96AD5 1-504): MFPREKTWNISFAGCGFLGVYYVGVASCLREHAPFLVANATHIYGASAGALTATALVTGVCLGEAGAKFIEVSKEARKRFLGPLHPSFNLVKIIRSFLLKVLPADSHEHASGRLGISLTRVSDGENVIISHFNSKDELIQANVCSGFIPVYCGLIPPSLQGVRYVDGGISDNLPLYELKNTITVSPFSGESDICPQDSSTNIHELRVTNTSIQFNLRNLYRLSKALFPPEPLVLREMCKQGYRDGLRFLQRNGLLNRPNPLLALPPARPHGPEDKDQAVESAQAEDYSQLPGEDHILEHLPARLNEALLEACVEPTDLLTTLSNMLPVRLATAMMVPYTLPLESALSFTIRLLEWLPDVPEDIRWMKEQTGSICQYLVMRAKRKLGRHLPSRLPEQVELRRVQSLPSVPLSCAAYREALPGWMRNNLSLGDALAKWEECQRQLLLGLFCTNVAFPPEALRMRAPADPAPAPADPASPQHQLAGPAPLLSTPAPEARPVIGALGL
The assay can be described thus: TG hydrolase activity, Expi cell lysates expressing human ATGL + CGI-58, radiolabelled triolein. The class given is biochemical. As for the experimental part:
(§1) Triglyceride (TG) hydrolase activity was measured as previously described (Schweiger M et al., Methods in Enzymology, 2014, 538:171-93). In brief, TG hydrolase activity was determined by adding recombinant purified CGI-58 to Expi cell lysates expressing human ATGL. For determination of cross-species reactivity Expi lysates expressing ATGL from different model organisms (e.g. mouse, rat, rhesus monkey, goat, etc.) were used. Samples were incubated with DMSO (carrier) or increasing concentrations of ATGL inhibitors dissolved in DMSO. TG substrate was prepared by emulsifying 330 μM radiolabelled triolein (40,000 c.p.m./nmol) and 45 μM phosphatidylcholine/phosphatidylinositol (3:1) in 100 mM potassium phosphate buffer (pH 7.0) by sonication and adjusting to 5% essentially FA-free BSA. TG substrate was added to the reaction mixture and incubated for 1 h at 37° C. in the water bath. The reaction was terminated by adding methanol/chloroform/heptane (10:9:7) and 0.1 M potassium carbonate with 0.1 M boric acid (pH 10.5). After centrifugation at 800 g for 15 min the radioactivity in the upper phase was determined by liquid scintillation counting and the rate of FA hydrolysis was calculated. IC50 values were determined as inhibitor concentration capable of inhibiting TG hydrolase activity by 50% as compared to DMSO control. Samples were measured as duplicates. The determination of IC50 values for human ATGL is illustrated in FIG. 1.

In a further assay the target is T2, murine ATGL (Mus musculus, UniProt Q8BJ56).
T2 construct: made in house; host or cells: Expi cells (lysate)
T2 sequence (Q8BJ56 1-486): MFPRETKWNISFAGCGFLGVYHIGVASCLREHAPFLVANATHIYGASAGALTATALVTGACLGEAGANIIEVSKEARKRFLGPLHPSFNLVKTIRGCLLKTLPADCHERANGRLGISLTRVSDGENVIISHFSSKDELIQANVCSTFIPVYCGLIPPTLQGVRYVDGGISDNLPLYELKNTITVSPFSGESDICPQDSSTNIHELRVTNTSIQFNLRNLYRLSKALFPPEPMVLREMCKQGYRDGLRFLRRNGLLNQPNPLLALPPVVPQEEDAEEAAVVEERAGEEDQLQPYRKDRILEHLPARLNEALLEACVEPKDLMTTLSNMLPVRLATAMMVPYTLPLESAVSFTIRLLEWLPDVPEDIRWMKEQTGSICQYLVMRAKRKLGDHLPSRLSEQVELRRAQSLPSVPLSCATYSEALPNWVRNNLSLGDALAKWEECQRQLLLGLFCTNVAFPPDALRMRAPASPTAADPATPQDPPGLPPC
Description: TG hydrolase activity, Expi lysates expressing mouse ATGL + CGI-58, radiolabelled triolein. It is filed as biochemical. As for the experimental part:
as §1
Lysates from Expi cells overexpressing ATGL from mouse (Mus musculus) were incubated with recombinant purified ATGL co-activator CGI-58 and ATGL inhibitors at 50 μM. Subsequently, substrate containing radiolabeled triolein was added and liberated FA were extracted and quantified by liquid scintillation. Inhibitors were dissolved in DMSO which was used as control. Samples were measured in triplicates.

[1] abbreviates: Example 237, read-out: Inhibition of human ATGL − IC50.
The mark [2] stands for this setting: 50 μM compound, Example 237, read-out: Inhibition of murine ATGL at 50 μM − mean [%].
Setting [3] is: Example 238, read-out: Inhibition of human ATGL IC50.
Setting [4] is: 50 μM, Example 238, read-out: % Inhibition of murine ATGL at 50 μM.
[5] abbreviates: values of text and figure legend, read-out: IC50 on human ATGL (hATGL).

SMILES strings stand for the structures. Where two headings read alike, the source gives them in different places.

The results in this text go back to patent US20220289698A1, “INHIBITORS OF HUMAN ATGL” (Karl-Franzens-Universität Graz, priority 2019, published 2022).

For orientation: IC50 means the midpoint of a concentration-inhibition curve. As usually defined, the inhibition is how much of the control response was suppressed.

Take `CC(C)OC(=O)c1cccc(-c2ccccc2)n1` [Example 24]: on human ATGL (setting [1]), the IC50 worked out at 25 µM. The inhibition at 50 µM on murine ATGL (setting [2]) was determined as 38%.
On the same counts, the results for `CC(C)OC(=O)c1cccc(-c2ccc(F)cc2)n1` [Example 25] are 8 µM and 10.9%.
For `CC(C)OC(=O)c1cccc(-c2ccc(C(=O)N(C)C)cc2)n1` [Example 42], in that order: 10 µM and 6.2%.
As for `C#CC(C)OC(=O)c1cc(OC)cc(-c2ccc(CCC)cc2)n1` (centres unmarked) [Example 54], the IC50 at human ATGL (setting [1]) was 20 µM. Further, the inhibition at 50 µM at murine ATGL (setting [2]) is 0%.
For `CCC(C)c1ccc(-c2cc(OC)cc(C(=O)OC(C)C)n2)cc1` (centres unmarked) [Example 56], in that order: 7 µM and 0%.
On the same counts, the results for `CON(C)C(=O)c1ccc(-c2cccc(C(=O)OC(C)C)n2)cc1` [Example 77] are 5 µM and 0%.
For `CC(C)OC(=O)c1cccc(CCc2ccccc2)n1` [Example 80], the half-inhibitory concentration (IC50) at human ATGL (setting [1]) is 50 µM. Besides, the inhibition at 50 µM on murine ATGL (setting [2]) was 3.4%.
On the same counts, the results for `CC(C)OC(=O)c1cccc(-c2ccc(OC(C)C)cc2)n1` [Example 95] are 3 µM and 13.1%.
`CCOC(=O)c1csc(-c2ccc(SCC)cc2)n1` [Example 98, Ethyl 2-(4-(ethylthio)phenyl)thiazole-4-carboxylate]: the IC50 at human ATGL (setting [1]) stood at 12 µM. Besides, the inhibition at 50 µM on murine ATGL (setting [2]) amounted to 0%.
Regarding `CCOC(=O)c1csc(-c2ccc(SC)cc2)n1` [Example 99, Ethyl 2-(4-(methylthio)phenyl)thiazole-4-carboxylate], the IC50 on human ATGL (setting [1]) is 12 µM. In addition, on murine ATGL (setting [2]), the inhibition at 50 µM was 37.3%.
Take `CCOC(=O)c1csc(-c2ccc(SC(C)C)cc2)n1` [Example 100]: the half-inhibitory concentration (IC50) at human ATGL (setting [1]) was 20 µM. Besides, on murine ATGL (setting [2]), the inhibition at 50 µM came out at 0%.
For `CCOC(=O)c1csc(-c2ccc(OC)cc2)n1` [Example 102, Ethyl 2-(4-methoxyphenyl)thiazole-4-carboxylate], in that order: 6 µM and 21.5%.
In the case of `CCOC(=O)c1csc(-c2ccc(N(C)C)cc2)n1` [Example 103, Ethyl 2-(4-(dimethylamino)phenyl)thiazole-4-carboxylate], the IC50 on human ATGL (setting [1]) is 25 µM. In addition, the inhibition at 50 µM on murine ATGL (setting [2]) turned out to be 33.9%.
With `CCOc1ccc(-c2nc(C(=O)OCc3cocn3)cs2)cc1` [Example 218, Oxazol-4-ylmethyl 2-(4-ethoxyphenyl)thiazole-4-carboxylate], the IC50 on human ATGL (setting [3]) is 20 µM.
For the compound `CCOc1ccc(-c2nc(C(=O)OCc3cnco3)cs2)cc1` [Example 220], the half-inhibitory concentration (IC50) on human ATGL (setting [3]) is 30 µM.
As for `CCOc1ccc(-c2nc(C(=O)OC(C)c3nccs3)cs2)cc1` (centres unmarked) [Example 225, 1-(Thiazol-2-yl)ethyl 2-(4-ethoxyphenyl)thiazole-4-carboxylate], the inhibition at 50 µM on murine ATGL (setting [4]) amounted to 68%.
With `CCOC(=O)c1nc(-c2ccc(OCC)cc2)sc1C(C)C` [Example 227, Ethyl 2-(4-ethoxyphenyl)-5-isopropylthiazole-4-carboxylate], the inhibition at 50 µM at murine ATGL (setting [4]) is 44%.
In the case of `COc1ccc(-c2nc(C(=O)OCc3ccsc3)cs2)cc1` [Example 231, Thiophen-3-ylmethyl 2-(4-methoxyphenyl)thiazole-4-carboxylate], at human ATGL (setting [3]), the concentration for half-maximal inhibition (IC50) came to 30 µM.
In the case of `CCCOc1ccc(-c2nc(C(=O)OCc3ccsc3)cs2)cc1` [Example 232, Thiophen-3-ylmethyl 2-(4-propoxyphenyl)thiazole-4-carboxylate], at human ATGL (setting [3]), the IC50 came to 12 µM.
For the compound `CC(C)Oc1ccc(-c2nc(C(=O)OCc3ccsc3)cs2)cc1` [Example 233, Thiophen-3-ylmethyl 2-(4-Isopropoxyphenyl)thiazole-4-carboxylate], on human ATGL (setting [3]), the IC50 came to 10 µM.
As to `CCOc1ccc(-c2ccc(C)c(C(=O)OC(C)C)n2)cc1` [NG-469, reference compound], the IC50 on human ATGL (setting [5]) is more than 200 µM.
As for `CN(C)C(=O)Nc1cccc(-c2ccc(N(C)C)cc2)c1` [atglistatin, reference compound], the IC50 at human ATGL (setting [5]) was more than 200 µM.
